Laboratory results reported in patent US20060165732A1, “Fungal antigens and eosinophil activity” (priority 2002, published 2006).

Experiments:
Human eosinophils = test: Eosinophil degranulation measured by EDN release (RIA); type: cell-based
Experimental: The ability to induce eosinophilic degranulation was measured by EDN release. Human eosinophils were isolated from normal volunteers and volunteers reporting past allergies, hay fever, and/or asthma by Percoll density gradient centrifugation and magnetic cell sorting using MACS anti-CD16 microbeads as described by Hansel et al. (1991, J. Immunol. Methods, 145:105). Briefly, after peripheral blood was overlaid on an isotonic Percoll solution (1.084 g/ml; Sigma), the blood was centrifuged at 1000×g for 30 minutes at 4° C. Mononuclear cells at the interface were removed, and erythrocytes in the sediment were lysed by two cycles of hypotonic water lysis. Isolated granulocytes were washed twice with PIPES buffer (25 mM PIPES, 50 mM NaCl, 5 mM KCl, 25 mM NaOH, 5.4 mM glucose, pH 7.4) containing 1% bovine calf serum (Hyclone Laboratories; Logan, Utah). Cells were then incubated with an equal volume of anti-CD16-conjugated magnetic beads (Miltenyi Biotec, Auburn, Calif.) for 30 minutes at 4° C. with occasional gentle mixing. After 30 minutes of incubation on ice, cells were loaded onto a separation column positioned in the strong magnetic field of the MACS. Cells were eluted three times with 5 mL of PIPES buffer containing 1% bovine calf serum. The purity of eosinophils, as counted by Randolph's stain, was regularly >98%. Purified eosinophils were used immediately for experiments.
To monitor eosinophil degranulation, 200 μL of freshly isolated eosinophils were resuspended in HBSS with 25 mM HEPES and 0.01% gelatin at 5×10^5 cells/mL and incubated with the a particular fungal extract. […] To quantitate eosinophil degranulation, the concentration of one of the eosinophil granule proteins in the sample supernatants, EDN, was measured by specific RIA, as described previously (Horie & Kita, 1994, J. Immunol., 152:5457). […] Total cellular EDN was measured in parallel supernatants from cells lysed with Nonidet P-40 detergent (Sigma Chemical Co.). […]

eosinophils = test: Intracellular calcium [Ca^2+]i in eosinophils (indo-1, flow cytometer); type: cell-based, human; conditions: 100 μg/mL extract or 10 ng/mL IL-5, 37° C.
Experimental: Real time changes in cytosolic free Ca^2+ (intracellular Ca^2+ concentration ([Ca^2+]i)) were measured in a flow cytometer using the fluorescent calcium indicator indo-1 (Rabinovitch et al., 1986, J. Immunol., 137:952; Grynkiewicz et al., 1985, J. Biol Chem., 260:3440). Indicator was introduced into cells by incubating 1 mL of eosinophils at a concentration of 1 to 2×10^6 cells/mL with 3 μM indo-1/AM (Molecular Probes, Eugene, Oreg.) in phenol red-free RPMI 1640 medium supplemented with 10% alpha calf serum and 10 mM HEPES for 30 minutes at 37° C. After washing, cells were suspended in RPMI with 0.1% HSA and 10 mM HEPES at 1×10^6 cells/mL. To measure [Ca^2+]i, cells were stimulated with 100 μg/mL Alternaria culture extract or 10 ng/mL IL-5, and fluorescence was analyzed by a FACS analyzer equipped with an ion-argon laser (Becton Dickinson). [Ca^2+]i was monitored on the basis of the ratio of the fluorescence of the calcium-bound indo-1 emission (401 nm) and the free indo-1 emission (475 nm). In addition, the [Ca^2+] in the medium can be manipulated to determine the effect on [Ca^2+]i.

[1] = system: Human peripheral blood eosinophils; test: IL-8 production by eosinophils (ELISA); type: cell-based; conditions: 0.01 μg/mL, 24 hours
Experimental: Human peripheral blood eosinophils can produce and release proinflammtory cytokines including IL-8. Eosinophils were incubated with 50 μg/mL or 100 μg/mL of Alternaria, or with 0.01 μg/mL IL-5, and the amount of IL-8 was measured. Purified eosinophils (1 mL at 1×10^6 cells/mL) were cultured in RPMI 1640 medium supplemented with 10% BCS in the presence of Alternaria or IL-5 using 48-well tissue culture plates (Costar, Cambridge, Mass.). After incubating the eosinophils with Alternaria or IL-5 for 24 hours at 37° C. in an atmosphere of 5% CO2, cell free supernatants were collected and frozen at −20° C. The concentrations of IL-8 in the supernatants were measured using an ELISA kit (Quantikine IL-8 Immunoassay Kit, R&D Systems, Minneapolis, Minn.). The threshold sensitivity of the kit was 4 pg/mL.

Substance: IL-5: cytokine used as reference stimulus of eosinophil degranulation
- EDN release (Human eosinophils; 10 ng/mL): 52.1±6.5 ng EDN/10^6 cells
- EDN release, eosinophils from allergy patients versus normal individuals (Human eosinophils; 100 μg/mL Alternaria culture extracts or 10 ng/mL IL-5): no difference
- EDN release at 4° C. (Human eosinophils; incubation at 4° C. for 3 hours): abrogated EDN release
- change in [Ca^2+]i (eosinophils): no elevation of [Ca^2+]i
- IL-8 production from eosinophils [1]: very little IL-8
